Experimental data from PubChem BioAssay (NCI).
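48-hour exposure; five concentrations; linearly interpolated endpoints. GI50 = concentration required for 50% inhibition of growth. The concentration for full growth arrest is given as TGI.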

How the values were obtained:
Assay in all cases: DTP human tumour cell line panel, 48 h
SK-OV-3 ovarian = tested on: SK-OV-3 ovarian
OVCAR-4 ovarian = tested on: OVCAR-4 ovarian
LOX IMVI melanoma = tested on: LOX IMVI melanoma
M14 melanoma = tested on: M14 melanoma
U251 CNS = tested on: U251 CNS
SF-539 CNS = tested on: SF-539 CNS
HCT-15 colon = tested on: HCT-15 colon
HT29 colon = tested on: HT29 colon
HCT-116 colon = tested on: HCT-116 colon
SNB-75 CNS = tested on: SNB-75 CNS

Row | SMILES | TGI (SK-OV-3 ovarian) [µM] | TGI (OVCAR-4 ovarian) [µM] | TGI (LOX IMVI melanoma) [µM] | TGI (M14 melanoma) [µM] | TGI (U251 CNS) [µM] | TGI (SF-539 CNS) [µM] | TGI (HCT-15 colon) [µM] | TGI (HT29 colon) [µM] | TGI (HCT-116 colon) [µM] | TGI (SNB-75 CNS) [µM] | GI50 (SK-OV-3 ovarian) [µM] | GI50 (OVCAR-4 ovarian) [µM] | GI50 (LOX IMVI melanoma) [µM] | GI50 (M14 melanoma) [µM] | GI50 (U251 CNS) [µM] | GI50 (SF-539 CNS) [µM] | GI50 (HCT-15 colon) [µM] | GI50 (HT29 colon) [µM] | GI50 (HCT-116 colon) [µM] | GI50 (SNB-75 CNS) [µM]
1 | O=C(O)c1ccc(CNCc2ccccc2)cc1 | > 100 | > 100 | > 100 | > 100 | > 100 | > 100 | > 100 | > 100 | > 100 |  |  |  |  |  |  |  |  |  |  | 
2 | CCOc1ccc(OCC(=O)O)c2c1CCCC2=O | > 100 | > 100 | > 100 | > 100 | > 100 | > 100 | > 100 | > 100 |  | > 100 |  |  |  |  |  |  |  |  |  | 
3 | c1ccc2c(c1)CCc1c(-c3ccncc3)n[nH]c1-2 | 93.6 |  | 54.8 | 47.9 | 57.8 | > 100 | 87.4 | > 100 | 46.2 | 77.7 |  |  |  |  |  |  |  |  |  | 
4 | Cc1cc2c(cc1C)[n+](=O)cc(C(=O)C/C(=N/NC(=S)NN)C(=O)Nc1cccc(C(F)(F)F)c1)n2[O-] | > 100 | > 100 |  | > 100 | > 100 | > 100 | > 100 | > 100 | > 100 | > 100 |  |  |  |  |  |  |  |  |  | 
5 | COCOCCC#CCO | > 100 |  | > 100 | > 100 | > 100 | > 100 | > 100 | > 100 | > 100 | > 100 |  |  |  |  |  |  |  |  |  | 
6 | COc1c2occc2c(N)c2ccc(=O)oc12 |  | > 100 | > 100 | > 100 | > 100 | > 100 | > 100 | > 100 | > 100 | 69.1 |  |  |  |  |  |  |  |  |  | 
7 | CNc1cc2oc(=O)cc(C)c2cc1C |  | > 100 | > 100 | > 100 | > 100 | > 100 | > 100 | > 100 | > 100 | > 100 |  |  |  |  |  |  |  |  |  | 
8 | CCSc1nc(N=Cc2ccccc2O)c2cn[nH]c2n1 | > 100 | > 100 | > 100 | 33 | > 100 | > 100 | > 100 | > 100 | > 100 |  | > 100 | 35 | 30.1 | 17.4 | 44.4 | 34.2 | 39.8 | 30.7 | 25.7 | 
9 | O=c1[nH]c(O)c(C=Nc2ccc(-c3nc4ccccc4o3)cc2)c(=O)[nH]1 | > 100 | > 100 | 58.9 | > 100 | 75.9 | 62.7 | > 100 |  | > 100 | > 100 | > 100 | 33 | 25.3 | 50.8 | 23.8 | 27.4 | 32.4 |  | 93.6 | > 100
10 | C=C(C)[C@@H]1CC[C@]2(CN)CC[C@]3(C)[C@H](CC[C@@H]4[C@@]5(C)CCCNC(C)(C)[C@@H]5CC[C@]43C)[C@@H]12 | 3.4 |  |  | 3.18 | 3.33 | 3.09 | 2.49 |  | 2.96 | 3.11 | 1.82 |  |  | 1.69 | 1.8 | 1.62 | 1.19 |  | 1.42 | 1.63
11 | COc1cc(/C=C2\CCCCC3=C2N=C2SC(C)=CN2C3c2cc(OC)c(OC)c(OC)c2)cc(OC)c1OC (centres undefined) | > 100 | > 100 | > 100 | > 100 | > 100 | > 100 |  | > 100 | > 100 | 9.09 | 6.23 | 12.3 | > 100 | 23.7 | 19.2 | > 100 |  | > 100 | 7.32 | 1.9
12 | C/C(=N\NC(N)=O)c1sc(-c2nc(C)c(/C(C)=N/NC(N)=O)s2)nc1C | > 100 | > 100 | > 100 | > 100 | > 100 | > 100 | 46.1 | > 100 |  | > 100 |  |  |  |  |  |  |  |  |  | 
13 | COc1ccc(NC(=O)CSc2nnc(-c3ccc(NC(C)=O)cc3)o2)cc1 | > 100 | 30.3 | 29.5 | 33.8 | 33.7 |  | 30.2 | 25.2 | 29.4 | > 100 |  |  |  |  |  |  |  |  |  | 
14 | O=C(CNc1ccc(Cl)cc1Cl)Nn1c(-c2ccccc2)nc2ccccc2c1=O | > 100 | 32.2 | 24.1 | 30.8 |  | 35.6 | 33.5 | 37.6 | 31.3 | 30.5 |  |  |  |  |  |  |  |  |  | 
15 | CNc1nc(N)nc(Nc2ccc(I)cc2)c1N=O |  |  | > 100 |  |  | > 100 | > 100 | > 100 | > 100 | > 100 |  |  |  |  |  |  |  |  |  | 
16 | O=C(c1ccc([N+](=O)[O-])cc1[N+](=O)[O-])N(/N=C/C=C/c1ccccc1)c1nnc(-c2ccccc2)c(-c2ccccc2)n1 | > 100 | 76.6 | > 100 | > 100 | > 100 | 30.1 | > 100 | > 100 |  | 86.8 |  |  |  |  |  |  |  |  |  | 
17 | CC(C)C1CN(C(=O)OCc2ccccc2)C2N1C(=O)C2(C)OCc1ccccc1 (centres undefined) |  | > 100 | > 100 | > 100 | > 100 | > 100 | > 100 | > 100 | > 100 | 59.5 |  |  |  |  |  |  |  |  |  | 
18 | O=S(=O)(OI(OI(OS(=O)(=O)C(F)(F)F)c1ccccc1)c1ccccc1)C(F)(F)F |  |  | > 100 | > 100 | > 100 | > 100 | > 100 |  | > 100 | > 100 |  |  |  |  |  |  |  |  |  | 
19 | COC(=O)c1c2c(c(C)[n+]([O-])c1C)C(=O)C(NCc1ccc(Br)cc1)=CC2=O |  | 2 | 6.7 | 2.46 | 6.01 | 4.75 | 3.91 |  | 3.77 | 6.79 |  | 0.704 | 1.67 | 1.14 | 2.14 | 2.13 | 1.44 |  | 1.23 | 2.2
20 | Nc1c(S(=O)(=O)c2ccc(Cl)cc2)c2nc3ccccc3nc2n2ccnc12 | > 100 | 33.3 |  | > 100 | > 100 | 36.2 | > 100 | > 100 | > 100 | 93.2 |  |  |  |  |  |  |  |  |  | 
